Patent US20130022673A1, “ENHANCEMENT OF MAGNESIUM UPTAKE IN MAMMALS” (priority 2003, published 2013)

Columns and labels:
[1] = oral intake; 'it is believed'; cited from earlier work
[2] = test system: 'restless legs' and intermittent leg cramps; settings: Week 3-4; scale 0 to 100
Text: A person suffered from ‘restless legs’ and intermittent leg cramps during sleep.
Each week the subject was asked to rate the intensity of the problem on a consistent rating scale with ‘0’ indicating no problem and ‘100’ indicating the most severe expression of the condition.

Compound: [O]=[Mg] [magnesium oxide]
- fraction of elemental magnesium absorbed for use by the body [1]: 3 to 12%

Compound: choline citrate
- Ave. intensity of leg cramp related difficulty [2]: 83
